Where two headings read alike, the source gives them in different places. Where no end group is shown, it is not given here.
Columns and labels:
[1] = system: BT-549 breast cancer cells; settings: for effect on viability of BT-549 breast cancer cells: two doubling times, CCK-8; for IC50: 96 h
Experimental: The effect of Peptides 7M and 7MM on BT-549 breast cancer cells (ATCC #HTB-122) was studied. Pierce Protein Transfection reagent (Thermo Scientific, 89850) was used to deliver peptide to the cultured cells. BT-549 breast cancer cells were transfected with 0.625-20 μM Peptide 7M or 1.25-10 μM Peptide 7MM for 3.5 hrs, incubated in a complete media for a duration of two doubling times (96 hours), and assessed for viability by using a CCK-8 colorimetric assay.
(§1) IC50 values were calculated from obtained equations that describe cell viability as a function of peptide concentration.

CMG helicase [2] = target: T1, CMG helicase (Xenopus laevis, UniProt Q91876); experiment: S phase arrested Xenopus egg extracts, chromatin RPA Western blot as readout for DNA helicase activity; assay type: biochemical; settings: 250 μM peptide, 90 min incubation
T1 construct: from tissue; host or cells: S phase arrested Xenopus egg extracts (endogenous proteins on chromatin)
Experimental: The peptide of SEQ ID NO: 1 was synthesized using solid-phase synthesis. The product was purified using HPLC to a purity of about 99%. 250 μM of peptide Ex7 ([…]) (SEQ ID NO: 8), peptide 7N (circularized—KGEVLQMEDDLV) (SEQ ID NO: 9), peptide 7M (ISFQLMLCVLDYF) (SEQ ID NO: 1), or peptide 7C (IKLSPPMLLKEPYK) (SEQ ID NO: 10) were incubated in S phase arrested Xenopus egg extracts. Following a 90 min incubation, chromatin was isolated and probed by Western blotting for RPA protein as a readout for DNA helicase activity. Additionally, peptide 7MN (ISFQLML) (SEQ ID NO: 5), peptide 7MM (QLMLCVL) (SEQ ID NO: 2), and peptide 7MC (LCVLDYF) (SEQ ID NO: 6) were tested.
250 μM of each of peptides 7α (DLVISFQLMLCVLDYFIK) (SEQ ID NO: 14), 7α-ln (LVISFQLMLCVLDYFIK) (SEQ ID NO: 22), 7α-2n (VISFQLMLCVLDYFIK) (SEQ ID NO: 23), 7α-3n (ISFQLMLCVLDYFIK) (SEQ ID NO: 24), 7α-4n (SFQLMLCVLDYFIK) (SEQ ID NO: 25), 7α-5n (FQLMLCVLDYFIK) (SEQ ID NO: 26), 7α-6n (QLMLCVLDYFIK) (SEQ ID NO: 27), 7α-7n (LMLCVLDYFIK) (SEQ ID NO: 28), 7α-17c (DLVISFQLMLCVLDYF) (SEQ ID NO: 29), 7α-16c (DLVISFQLMLCVLDY) (SEQ ID NO: 30), 7α-15c (DVISFQLMLCVLD) (SEQ ID NO: 31), 7α-14c (DVISFQLMLCVL) (SEQ ID NO: 32), 7α-11c (DVISFQLML) (SEQ ID NO: 33) was incubated in S phase arrested Xenopus egg extracts. Following a 90 min incubation, chromatin was isolated and probed by Western blotting for RPA protein as a readout for DNA helicase activity.

cancer cells = experiment: Viability of cancer cells, summary statement; assay type: cell-based
CMG helicase [3] = target: T1, CMG helicase; experiment: S phase arrested Xenopus egg extracts, chromatin RPA Western blot as readout for DNA helicase activity; assay type: biochemical; settings: extended from the above and other findings; no test described
[4] = system: M059J glioma cancer cells; settings: for IC50: 48 h
Experimental: (§2) Pierce Protein Transfection reagent (Thermo Scientific, 89850) was used to deliver peptide to the cultured cells.
M059J glioma cancer cells (ATCC #CRL-2366) were transfected with 1.25-10 μM peptide 7α for 3.5 hrs, incubated in a complete media for a duration of two doubling times, and assessed for viability by using a CCK-8 colorimetric assay (Dojindo Molecular Technologies, Inc.).
M059J glioma cancer cells (ATCC #CRL-2366) were transfected with 1.25-10 μM peptide 7MM for 3.5 hrs, incubated in a complete media for a duration of two doubling times, and assessed for viability by using a CCK-8 colorimetric assay (Dojindo Molecular Technologies, Inc.).
as §1

HepG2 liver cancer cells = settings: 96 h
Experimental: as §2, §1

[5] = system: SVG p12 immortalized astroglia cells
Experimental: as §1

[6] = system: PANC-1 pancreatic cancer cells; settings: 48 h
Experimental: The effect of Peptides 7M and 7MM on PANC-1 pancreatic cancer cells (ATCC #CRL-1469) was studied. Pierce Protein Transfection reagent (Thermo Scientific, 89850) was used to deliver peptide to the cultured cells. PANC-1 pancreatic cancer cells were transfected with 0.625-10 μM Peptide 7M or Peptide 7MM for 3.5 hrs, incubated in a complete media for a duration of two doubling times (48 hours), and assessed for viability by using a CCK-8 colorimetric assay.
The effect of peptide 7α of viability of pancreatic cancer cells was studied. PANC-1 pancreatic cancer cells (ATCC #CRL-1469) were transfected with 1.25-10 μM peptide 7α for 3.5 hrs, incubated in a complete media for a duration of two doubling times, and assessed for viability by using a CCK-8 colorimetric assay (Dojindo Molecular Technologies, Inc.).
as §1

[7] = system: HCT-116 colorectal cancer cells
Experimental: The effect of peptide 7MM of viability of colorectal cancer cells was studied. HCT-116 colorectal cancer cells (ATCC #CCL-247) were transfected with 1.25-10 μM peptide 7MM for 3.5 hrs, incubated in a complete media for a duration of two doubling times, and assessed for viability by using a CCK-8 colorimetric assay (Dojindo Molecular Technologies, Inc.).
as §1

[8] = system: HT1080 fibrosarcoma cancer cells
Experimental: as §1

[9] = system: HMEC primary mammary epithelial normal cells
Experimental: HMEC mammary epithelial cells (ATCC #PCS-600-010) were transfected with 1.25-20 μM peptide 7α for 3.5 hrs, incubated in a complete media for a duration of two doubling times, and assessed for viability by using a CCK-8 colorimetric assay (Dojindo Molecular Technologies, Inc.).
HMEC primary normal epithelial breast cells (ATCC #PCS-600-010) were transfected with 1.25-10 μM peptide 7MM for 3.5 hrs, incubated in a complete media for a duration of two doubling times, and assessed for viability by using a CCK-8 colorimetric assay (Dojindo Molecular Technologies, Inc.).
as §1

[10] = system: Hs 766T pancreatic cancer cells
Experimental: as §1

[11] = system: DU145 prostate cancer cells
Experimental: DU145 prostate cancer cells (ATCC #HTB-81) were transfected with 1.25-10 μM peptide 7α for 3.5 hrs, incubated in a complete media for a duration of two doubling times, and assessed for viability by using a CCK-8 colorimetric assay (Dojindo Molecular Technologies, Inc.).
DU145 prostate cancer cells (ATCC #HTB-81) were transfected with 1.25-10 μM peptide 7MM for 3.5 hrs, incubated in a complete media for a duration of two doubling times, and assessed for viability by using a CCK-8 colorimetric assay (Dojindo Molecular Technologies, Inc.).
as §1

[12] = system: PC3 prostate cancer cells
Experimental: The effect of peptide 7α of viability of prostate cancer cells was studied. PC3 prostate cancer cells (ATCC #CRL-1435) were transfected with 1.25-10 μM peptide 7α for 3.5 hrs, incubated in a complete media for a duration of two doubling times, and assessed for viability by using a CCK-8 colorimetric assay (Dojindo Molecular Technologies, Inc.).
The effect of peptide 7MM of viability of prostate cancer cells was studied. PC3 prostate cancer cells (ATCC #CRL-1435) were transfected with 1.25-10 μM peptide 7MM for 3.5 hrs, incubated in a complete media for a duration of two doubling times, and assessed for viability by using a CCK-8 colorimetric assay (Dojindo Molecular Technologies, Inc.).
as §1

[13] = system: hTERT-HPNE immortalized normal pancreatic cells
Experimental: as §1

[14] = system: HLF normal primary lung fibroblasts
Experimental: The effect of peptide 7α of viability of HLF normal primary lung fibroblasts was studied. HLF normal primary lung fibroblasts (ATCC #PCS-201-013) were transfected with 1.25-10 μM peptide 7α for 3.5 hrs, incubated in a complete media for a duration of two doubling times, and assessed for viability by using a CCK-8 colorimetric assay (Dojindo Molecular Technologies, Inc.).
The effect of peptide 7MM of viability of normal lung cells was studied. HLF normal primary lung fibroblasts (ATCC #PC S-201-013) were transfected with 1.25-10 μM peptide 7MM for 3.5 hrs, incubated in a complete media for a duration of two doubling times, and assessed for viability by using a CCK-8 colorimetric assay (Dojindo Molecular Technologies, Inc.).
as §1

[15] = system: THLE-3 immortalized normal liver cells
Experimental: as §1

[16] = system: U-2 OS osteosarcoma cancer cells
Experimental: as §1

[17] = transfected 1.25-10 μM for 3.5 hrs
[18] = conclusion drawn from Examples 39, 41, 42 and FIGS. 42, 44, 45
[19] = transfected 2.5 and 5.0 μM for 3.5 hrs
[20] = extended from the above and other findings, no test described
[21] = transfected 1.25-10 μM for 3.5 hrs, two doubling times, CCK-8

Experimental for A549 lung cancer cells: as §1
Experimental for H596 lung cancer cells: as §1

## DLVISFALMLCVLDYFIK [7α-Q7A]
[1]; [17]
  effect on viability of BT-549 breast cancer cells: inhibit viability of breast cancer cells

## DLVISFQGMLCVLDYFIK [7α-L8G]
[1]; [17]
  effect on viability of BT-549 breast cancer cells: inhibit viability of breast cancer cells

## DLVISFQLMLCVLDY (listed as Homo sapiens) [7α-16c]
CMG helicase [2]
  inhibition of CMG helicase in vitro (chromatin RPA Western blot): inhibit CMG helicase in vitro
Cancer cells; [18]
  effect on viability of cancer cells: decrease viability of cancer cells

## DLVISFQLMLCVLDYF (listed as Homo sapiens) [7α-17c]
CMG helicase [2]
  inhibition of CMG helicase in vitro (chromatin RPA Western blot): inhibit CMG helicase in vitro
Cancer cells; [18]
  effect on viability of cancer cells: decrease viability of cancer cells

## DVISFQLML (DLVISFQLML; listed as Homo sapiens) [7α-11c]
[1]; [19]
  effect on viability of BT-549 breast cancer cells: decrease viability
CMG helicase [2]
  inhibition of CMG helicase in vitro (chromatin RPA Western blot): inhibit CMG helicase in vitro
Cancer cells; [18]
  effect on viability of cancer cells: decrease viability of cancer cells

## DVISFQLMLCVL (DLVISFQLMLCVL; listed as Homo sapiens) [7α-14c]
[1]; [19]
  effect on viability of BT-549 breast cancer cells: decrease viability
CMG helicase [2]
  inhibition of CMG helicase in vitro (chromatin RPA Western blot): inhibit CMG helicase in vitro
Cancer cells; [18]
  effect on viability of cancer cells: decrease viability of cancer cells

## DVISFQLMLCVLD (DLVISFQLMLCVLD; listed as Homo sapiens) [7α-15c]
[1]; [19]
  effect on viability of BT-549 breast cancer cells: decrease viability
CMG helicase [2]
  inhibition of CMG helicase in vitro (chromatin RPA Western blot): inhibit CMG helicase in vitro
Cancer cells; [18]
  effect on viability of cancer cells: decrease viability of cancer cells

## FQLMLCVLDYFIK (listed as Homo sapiens) [7α-5n]
CMG helicase [2]
  inhibition of CMG helicase in vitro (chromatin RPA Western blot): inhibit CMG helicase in vitro
Cancer cells; [18]
  effect on viability of cancer cells: decrease viability of cancer cells

## GMLCVL [7MM6-G2]
CMG helicase [3]
  inhibition of CMG helicase: inhibit CMG helicase
Cancer cells; [20]
  effect on viability of cancer cells: decrease viability of cancer cells

## GMLCVLD [7MM6-G2-D]
CMG helicase [3]
  inhibition of CMG helicase: inhibit CMG helicase
Cancer cells; [20]
  effect on viability of cancer cells: decrease viability of cancer cells

## ISFQLMLCVLDYF [7M, ISFQLMLCVLDYF]
[1]
  IC50: 6.6 µM
[4]
  IC50: 6.8 µM
HepG2 liver cancer cells
  IC50: 10 µM
[5]
  IC50: 109 µM
[6]
  IC50: 7.4 µM

## ISFQLMLCVLDYFIK (listed as Homo sapiens) [7α-3n]
CMG helicase [2]
  inhibition of CMG helicase in vitro (chromatin RPA Western blot): inhibit CMG helicase in vitro
Cancer cells; [18]
  effect on viability of cancer cells: decrease viability of cancer cells

## LMGCVL [7MM6-G4]
CMG helicase [3]
  inhibition of CMG helicase: inhibit CMG helicase
Cancer cells; [20]
  effect on viability of cancer cells: decrease viability of cancer cells

## LMGCVLD [7MM6-G4-D]
CMG helicase [3]
  inhibition of CMG helicase: inhibit CMG helicase
Cancer cells; [20]
  effect on viability of cancer cells: decrease viability of cancer cells

## LMLCVL [7MM6]
CMG helicase [3]
  inhibition of CMG helicase: inhibit CMG helicase
Cancer cells; [20]
  effect on viability of cancer cells: decrease viability of cancer cells

## LMLCVLD [7MM6-D]
CMG helicase [3]
  inhibition of CMG helicase: inhibit CMG helicase
Cancer cells; [20]
  effect on viability of cancer cells: decrease viability of cancer cells

## LMLCVLDYFIK (listed as Homo sapiens) [7α-7n]
[1]; [19]
  effect on viability of BT-549 breast cancer cells: decrease viability
CMG helicase [2]
  inhibition of CMG helicase in vitro (chromatin RPA Western blot): inhibit CMG helicase in vitro
Cancer cells; [18]
  effect on viability of cancer cells: decrease viability of cancer cells

## LVISFQLMLCVLDYFIK (listed as Homo sapiens) [7α-1n]
CMG helicase [2]
  inhibition of CMG helicase in vitro (chromatin RPA Western blot): inhibit CMG helicase in vitro
Cancer cells; [18]
  effect on viability of cancer cells: decrease viability of cancer cells

## QGMLCVL [7MM-G2]
CMG helicase [3]
  inhibition of CMG helicase: inhibit CMG helicase
Cancer cells; [20]
  effect on viability of cancer cells: decrease viability of cancer cells

## QLMGCVL [7MM-G4]
CMG helicase [3]
  inhibition of CMG helicase: inhibit CMG helicase
Cancer cells; [20]
  effect on viability of cancer cells: decrease viability of cancer cells

## QLMLCVL [7MM, QLMLCVL]
H596 lung cancer cells
  IC50: 7.6 µM
H596 lung cancer cells; [21]
  effect on viability of H596 lung cancer cells: decreases viability
[7]
  IC50: 4.9 µM
[7]; [21]
  effect on viability of HCT-116 colorectal cancer cells: decreases viability
[8]
  IC50: 9.7 µM
[8]; [21]
  effect on viability of HT1080 fibrosarcoma cancer cells: decreases viability
[9]
  IC50: 77.5 µM
[9]; [21]
  effect on viability of HMEC normal breast cells: does not affect viability
[1]
  IC50: 6.8 µM
[4]
  IC50: 7.7 µM
[4]; [21]
  effect on viability of M059J glioma cells: decreases viability
[10]
  IC50: 5.7 µM
[10]; [21]
  effect on viability of Hs 766T pancreatic cancer cells: decreases viability
HepG2 liver cancer cells
  IC50: 14.2 µM
[11]
  IC50: 10.6 µM
[11]; [21]
  effect on viability of DU145 prostate cancer cells: decreases viability
[12]
  IC50: 13 µM
[12]; [21]
  effect on viability of PC3 prostate cancer cells: decreases viability
[13]
  IC50: 79.9 µM
[13]; [21]
  effect on viability of hTERT-HPNE normal pancreatic cells: does not affect viability
[14]
  IC50: 110 µM
[14]; [21]
  effect on viability of HLF normal primary lung fibroblasts: does not affect viability
[5]
  IC50: 60.4 µM
[5]; [21]
  effect on viability of SVG p12 normal glial cells: does not affect viability
A549 lung cancer cells
  IC50: 15.6 µM
A549 lung cancer cells; [21]
  effect on viability of A549 lung cancer cells: decreases viability
[15]
  IC50: 100 µM
[15]; [21]
  effect on viability of THLE-3 normal liver cells: does not affect viability
[6]
  IC50: 10.1 µM
[16]
  IC50: 9.6 µM
[16]; [21]
  effect on viability of U-2 OS osteosarcoma cancer cells: decreases viability

## QLMLCVLD [7MM-D]
CMG helicase [3]
  inhibition of CMG helicase: inhibit CMG helicase
Cancer cells; [20]
  effect on viability of cancer cells: decrease viability of cancer cells

## QLMLCVLDYFIK (listed as Homo sapiens) [7α-6n]
[1]; [19]
  effect on viability of BT-549 breast cancer cells: decrease viability
CMG helicase [2]
  inhibition of CMG helicase in vitro (chromatin RPA Western blot): inhibit CMG helicase in vitro
Cancer cells; [18]
  effect on viability of cancer cells: decrease viability of cancer cells

## SFQLMLCVLDYFIK (listed as Homo sapiens) [7α-4n]
CMG helicase [2]
  inhibition of CMG helicase in vitro (chromatin RPA Western blot): inhibit CMG helicase in vitro
Cancer cells; [18]
  effect on viability of cancer cells: decrease viability of cancer cells

## VISFQLMLCVLDYFIK (listed as Homo sapiens) [7α-2n]
CMG helicase [2]
  inhibition of CMG helicase in vitro (chromatin RPA Western blot): inhibit CMG helicase in vitro
Cancer cells; [18]
  effect on viability of cancer cells: decrease viability of cancer cells
